# In patent US9079866B2, “Flap modulators” (JANSSEN PHARMACEUTICA NV, priority 2013, dated 2015):
# Where a name gives a salt, the structure may show the parent alone.
# Biological target: human FLAP (Homo sapiens (Human), UniProt P20292)
# Experiment: FLAP binding assay (HTRF format)
# Conditions: wild type FLAP, HTRF format
# Summary of the method: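 Samples were run in duplicate on each of two plates and the plate results averaged. Read-out is the HTRF signal ratio.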
# Sequence of human FLAP (P20292 whole entry): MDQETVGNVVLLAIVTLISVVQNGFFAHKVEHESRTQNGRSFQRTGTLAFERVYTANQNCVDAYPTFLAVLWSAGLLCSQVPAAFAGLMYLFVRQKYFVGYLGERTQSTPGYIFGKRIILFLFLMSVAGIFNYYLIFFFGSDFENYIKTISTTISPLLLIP
row,Ki,SMILES
1,> 10000 nM,"Nc1ncc(-c2ccc(-c3ccccc3-c3cnc(N)nc3)cn2)cn1 [Example 855, 5-{5-[2-(2-Aminopyrimidin-5-yl)phenyl]pyridin-2-yl}pyrimidin-2-amine]"
2,~1250 nM,"Nc1cnc(-c2ccc(-c3cccnc3N3CCCC3)cc2F)cn1 [Example 859, 5-[2-Fluoro-4-(2-pyrrolidin-1-ylpyridin-3-yl)phenyl]pyrazin-2-amine]"
3,~1480 nM,"Nc1cnc(-c2ccc(-c3ccccc3N3CCCC3=O)cc2F)cn1 [Example 860, 1-[4′-(5-Aminopyrazin-2-yl)-3′-fluorobiphenyl-2-yl]pyrrolidin-2-one]"

# Test system: leukotriene pathway in human whole blood (LTB4 levels)
# Experiment: Human whole blood assay (A23187-stimulated LTB4)
# Type: cell-based
# Conditions: Homo sapiens, human whole blood diluted 1:1, A23187-stimulated; read-out: LTB4 IC50 1:1
# Protocol: The ability of the compounds of the present invention to treat a FLAP-mediated disease and/or disorder, or associated symptoms or complications thereof, was determined using the following procedures. Binding assay data represent the average value obtained from two different assay plates, with samples run in duplicate on each plate. Human whole blood assay data represent a single replicate on an assay plate using whole blood from at least one healthy donor.
# An in vitro cellular assay was performed using human whole blood collected in heparin-containing tubes, which was used to test the ability of compounds to modulate the leukotriene pathway in human whole blood. The blood was diluted 1:1 in RPMI medium, pre-incubated for 15 min at 37° Celsius with test compounds at various concentrations, and then stimulated with calcium ionophore, A23187 (7 μg/mL), for 30 min at 37° Celsius. The samples were then centrifuged and plasma was removed. The plasma was diluted in assay buffer and LTB4 levels were measured using a commercial kit (Enzo Life Sciences). The concentration of each compound that was required for half-maximal inhibition (modulation) of recombinant enzyme activity (IC50) was calculated by a 4-parameter equation using the program GraphPad Prism (GraphPad software).
row,IC50,SMILES
1,639 nM,"CC1CN(C(=O)c2ccccc2-c2ccc(-c3cnc(N)cn3)c(F)c2)CC(C)O1 (mixture of isomers) [Example 773, 5-{2′-[(2,6-Dimethylmorpholin-4-yl)carbonyl]-3-fluorobiphenyl-4-yl}pyrazin-2-amine (diastereoisomeric mixture)]"
2,190 nM,"Nc1ncc(-c2ccc(-c3ccccc3S(=O)(=O)N3CCCC(O)C3)cc2F)cc1F (racemic) [Example 668, (racemic)-1-((4′-(6-Amino-5-fluoropyridin-3-yl)-3′-fluoro-[1,1′-biphenyl]-2-yl)sulfonyl)piperidin-3-ol]"
3,241 nM,"Nc1cnc(-c2ccc(-c3cccnc3S(=O)(=O)C3CCNC3)cc2F)cn1 (racemic) [Example 803, racemic 5-(2-Fluoro-4-(2-(pyrrolidin-3-ylsulfonyl)pyridin-3-yl)phenyl)pyrazin-2-amine hydrochloride]"
4,75.1 nM,"CCC(C)S(=O)(=O)c1ncccc1-c1ccc(-c2cnc(N)nc2)c(F)c1 (racemic) [Example 813, racemic 5-(4-(2-(sec-Butylsulfonyl)pyridin-3-yl)-2-fluorophenyl)pyrimidin-2-amine formate]"
5,20.9 nM,"CCC(C)S(=O)(=O)c1ncccc1-c1ccc(-c2cnc(N)cn2)c(F)c1 (racemic) [Example 814, racemic 5-(4-(2-(sec-Butylsulfonyl)pyridin-3-yl)-2-fluorophenyl)pyrazin-2-amine formate]"
6,37 nM,"CC(O)CNS(=O)(=O)c1ccccc1-c1ccc(-c2cnc(N)c(C#N)n2)c(F)c1 (stereo in doubt) [Example 415, 4′-(5-Amino-6-cyanopyrazin-2-yl)-3′-fluoro-N-[(2R)-2-hydroxypropyl]biphenyl-2-sulfonamide]"

# Same assay, conditions: Homo sapiens, human whole blood diluted 1:1 in RPMI, A23187-stimulated LTB4; read-out: LTB4 IC50 1:1
row,SMILES,IC50
1,"N#CC1CCCN(S(=O)(=O)c2ccccc2-c2ccc(-c3cnc(N)cn3)c(F)c2)C1 (racemic) [Example 63, racemic 1-{[4′-(5-Aminopyrazin-2-yl)-3′-fluorobiphenyl-2-yl]sulfonyl}piperidine-3-carbonitrile]",28 nM
2,"Nc1cnc(-c2ccc(-c3ccccc3S(=O)(=O)N3CCCC(O)C3)cc2F)cn1 (racemic) [Example 70, racemic 1-{[4′-(5-Aminopyrazin-2-yl)-3′-fluorobiphenyl-2-yl]sulfonyl}piperidin-3-ol]",10 nM
3,"Nc1cnc(-c2ccc(-c3ccccc3S(=O)(=O)N3C[C@H](O)[C@@H](N4CCOCC4)C3)cc2F)cn1 (racemic) [Example 187, Racemic-1-{[4′-(5-Aminopyrazin-2-yl)-3′-fluorobiphenyl-2-yl]sulfonyl}-4-morpholin-4-ylpyrrolidin-3-ol trifluoroacetic acid salt]",69 nM
4,"CN1CCN([C@@H]2CN(S(=O)(=O)c3ccccc3-c3ccc(-c4cnc(N)cn4)c(F)c3)C[C@H]2O)CC1 (racemic) [Example 188, Racemic-1-{[4′-(5-Aminopyrazin-2-yl)-3′-fluorobiphenyl-2-yl]sulfonyl}-4-(4-methylpiperazin-1-yl)-pyrrolidin-3-ol trifluoroacetic acid salt]",1180 nM
5,"CC(NS(=O)(=O)c1ccccc1-c1ccc(-c2cnc3[nH]ccc3n2)c(F)c1)C(F)(F)F (racemic) [Example 376, racemic 3′-Fluoro-4′-(5H-pyrrolo[2,3-b]pyrazin-2-yl)-N-(2,2,2-trifluoro-1-methylethyl)biphenyl-2-sulfonamide]",10 nM
6,"Nc1cnc(-c2ccc(-c3ccccc3S(=O)(=O)N[C@H]3CCCCNC3=O)cc2F)cn1 (stereo in doubt) [Example 28, (S)-4′-(5-Aminopyrazin-2-yl)-3′-fluoro-N-[(3S)-2-oxoazepan-3-yl]biphenyl-2-sulfonamide]",325 nM
7,"Nc1cnc(-c2ccc(-c3ccccc3S(=O)(=O)NC3Cc4ccccc4C3)cc2F)cn1 [Example 21, 4′-(5-Aminopyrazin-2-yl)-N-(2,3-dihydro-1H-inden-2-yl)-3′-fluorobiphenyl-2-sulfonamide]",35 nM
8,"Nc1cnc(-c2ccc(-c3ccccc3S(=O)(=O)NCCCO)cc2F)cn1 [Example 80, 4′-(5-Aminopyrazin-2-yl)-3′-fluoro-N-(3-hydroxypropyl)biphenyl-2-sulfonamide]",88 nM
9,"Nc1cnc(-c2ccc(-c3ccccc3S(=O)(=O)N3CC[C@@H](N)C3)cc2F)cn1 [Example 92, (R)-5-(2′-((3-Aminopyrrolidin-1-yl)sulfonyl)-3-fluoro-[1,1′-biphenyl]-4-yl)pyrazin-2-amine]",222 nM
10,"CS(=O)(=O)NS(=O)(=O)c1ccccc1-c1ccc(-c2cnc(N)cn2)c(F)c1 [Example 96, 4′-(5-Aminopyrazin-2-yl)-3′-fluoro-N-(methylsulfonyl)biphenyl-2-sulfonamide]",> 10000 nM
11,"CC(C)(CO)CNS(=O)(=O)c1ccccc1-c1ccc(-c2cnc(N)cn2)c(F)c1 [Example 103, 4′-(5-Aminopyrazin-2-yl)-3′-fluoro-N-(3-hydroxy-2,2-dimethylpropyl)biphenyl-2-sulfonamide]",17 nM
12,"Nc1cnc(-c2ccc(-c3ccccc3S(=O)(=O)N3c4ccccc4C[C@H]3CO)cc2F)cn1 [Example 135, (S)-(1-{[4′-(5-Aminopyrazin-2-yl)-3′-fluorobiphenyl-2-yl]sulfonyl}-2,3-dihydro-1H-indol-2-yl)-methanol]",16 nM
13,"Nc1cnc(-c2ccc(-c3ccccc3S(=O)(=O)N[C@@H]3c4ccccc4C[C@@H]3O)cc2F)cn1 [Example 161, 4′-(5-Aminopyrazin-2-yl)-3′-fluoro-N-((1R,2S)-2-hydroxy-2,3-dihydro-1H-inden-1-yl)-[1,1′-biphenyl]-2-sulfonamide]",48 nM

# Further lines, results first:
row,IC50,SMILES
1,27 nM,"Nc1cnc(-c2ccc(-c3ccccc3S(=O)(=O)N3CCCC(CO)C3)cc2F)cn1 (racemic) [Example 76, racemic (1-{[4′-(5-Aminopyrazin-2-yl)-3′-fluorobiphenyl-2-yl]sulfonyl}piperidin-3-yl)methanol]"
2,10 nM,"Nc1cnc(-c2ccc(-c3ccccc3S(=O)(=O)N[C@H]3CCCC[C@@H]3CO)cc2F)cn1 (racemic) [Example 121, racemic (trans)-4′-(5-Aminopyrazin-2-yl)-3′-fluoro-N-[2-(hydroxymethyl)cyclohexyl]biphenyl-2-sulfonamide]"
3,30 nM,"CC(CO)NS(=O)(=O)c1ccccc1-c1ccc(-c2cnc(N)cn2)c(F)c1 (stereo in doubt) [Example 32, 4′-(5-Aminopyrazin-2-yl)-3′-fluoro-N-[(1S)-2-hydroxy-1-methylethyl]biphenyl-2-sulfonamide]"
4,48 nM,"C[C@H](NS(=O)(=O)c1ccccc1-c1ccc(-c2cnc(N)cn2)c(F)c1)c1ccccc1 [Example 24, (R)-4′-(5-Aminopyrazin-2-yl)-3′-fluoro-N-[(1R)-1-phenylethyl]biphenyl-2-sulfonamide]"
5,23 nM,"C[C@@H](CO)NS(=O)(=O)c1ccccc1-c1ccc(-c2cnc(N)cn2)c(F)c1 [Example 25, (R)-4′-(5-Aminopyrazin-2-yl)-3′-fluoro-N-[(1R)-2-hydroxy-1-methylethyl]biphenyl-2-sulfonamide]"
6,128 nM,"Nc1cnc(-c2ccc(-c3ccccc3S(=O)(=O)N3CC[C@H](N)C3)cc2F)cn1 [Example 93, (S)-5-(2′-((3-Aminopyrrolidin-1-yl)sulfonyl)-3-fluoro-[1,1′-biphenyl]-4-yl)pyrazin-2-amine]"
7,35 nM,"CC(C)(CCO)NS(=O)(=O)c1ccccc1-c1ccc(-c2cnc(N)cn2)c(F)c1 [Example 102, 4′-(5-Aminopyrazin-2-yl)-3′-fluoro-N-(3-hydroxy-1,1-dimethylpropyl)biphenyl-2-sulfonamide]"
8,6 nM,"C[C@@H]([C@@H](O)c1ccccc1)N(C)S(=O)(=O)c1ccccc1-c1ccc(-c2cnc(N)cn2)c(F)c1 [Example 118, 4′-(5-aminopyrazin-2-yl)-3′-fluoro-N-((1S,2S)-1-hydroxy-1-phenylpropan-2-yl)-N-methyl-[1,1′-biphenyl]-2-sulfonamide]"
9,572 nM,"CN[C@@H]1CCN(S(=O)(=O)c2ccccc2-c2ccc(-c3cnc(N)cn3)c(F)c2)C1 [Example 126, (R)-5-(3-Fluoro-2′-{[3-(methylamino)pyrrolidin-1-yl]sulfonyl}biphenyl-4-yl)pyrazin-2-amine]"
10,5 nM,"Nc1cnc(-c2ccc(-c3ccccc3S(=O)(=O)N[C@H]3c4ccccc4C[C@H]3O)cc2F)cn1 [Example 160, 4′-(5-Aminopyrazin-2-yl)-3′-fluoro-N-((1S,2R)-2-hydroxy-2,3-dihydro-1H-inden-1-yl)-[1,1′-biphenyl]-2-sulfonamide]"
11,23 nM,"N#CCCNS(=O)(=O)c1ccccc1-c1ccc(-c2cnc(N)cn2)c(F)c1 [Example 169, 4′-(5-Aminopyrazin-2-yl)-N-(2-cyanoethyl)-3′-fluorobiphenyl-2-sulfonamide]"
